Series [1] has as its target T1, D3dgpA (human intestinal bacterium PUE, UniProt A0A3Q9WWX8).
T1 construct: gene dgpA; full length, 367 residues; His6-tag; pET-duet 1 (EcoRI/SalI), E. coli BL21 (DE3), Ni-NTA; about 45 kD; hexamer in solution; co-purifies with NAD(H)
T1 sequence (A0A3Q9WWX8 1-367): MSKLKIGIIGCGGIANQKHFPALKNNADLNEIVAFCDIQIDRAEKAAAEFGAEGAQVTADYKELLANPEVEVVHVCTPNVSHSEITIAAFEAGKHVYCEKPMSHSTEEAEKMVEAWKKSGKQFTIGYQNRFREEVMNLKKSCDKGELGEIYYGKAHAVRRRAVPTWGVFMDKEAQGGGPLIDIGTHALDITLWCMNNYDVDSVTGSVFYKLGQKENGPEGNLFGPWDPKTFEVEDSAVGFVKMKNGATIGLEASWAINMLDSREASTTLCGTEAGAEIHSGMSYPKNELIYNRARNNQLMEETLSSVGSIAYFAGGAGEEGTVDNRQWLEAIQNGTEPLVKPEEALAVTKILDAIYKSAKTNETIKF
Briefly: HPLC of […]”-oxo-puerarin formation with and without monosaccharide. It is filed as biochemical. Particulars: 400 eq puerarin and methyl β-D-3-oxo-glucopyranoside, 800 eq monosaccharide to enzyme; 5 mM HEPES pH 7.5, 36.5°C, 10 min.

Series [2] addresses T1, D3dgpA. Briefly: HPLC analysis of nucleotide co-purified with enzyme. It is filed as binding. Particulars: bound in purified enzyme as isolated.
For series [3], the target named is D3dgpA, Gfo/Idh/MocA family glycoside oxidoreductase (dgpA cloned from Dorea sp. MRG-IFC3) (Dorea sp. MRG-IFC3). The series can be described thus: not stated; purified His6-tagged D3dgpA in solution; the method is shown only in Supplementary Figure S5.
Substrate in series [4]: O=c1c(-c2ccc(O)cc2)coc2c([C@@H]3O[C@H](CO)[C@@H](O)[C@H](O)[C@H]3O)c(O)ccc12
Briefly: purified protein. It is filed as biochemical, human intestinal bacterium PUE. Particulars: co-substrate 760 μM methyl β-D-3-oxo-glucopyranoside, 5 mM HEPES pH 7.5, 5 mM NaCl, 36.5°C.

The source of these data is paper PMC11239390, “Glycoside-metabolizing oxidoreductase D3dgpA from human gut bacterium” (Frontiers in Bioengineering and Biotechnology, 2024).

As for `OC[C@H]1OC(O)[C@H](O)[C@@H](O)[C@@H]1O` (stereo partly drawn) [D-glucose], in series [1], the relative inhibition entry is given as “D-glucose exhibited the most inhibitory effects on the oxidation of puerarin”.
Turning to `NC(=O)c1ccc[n+]([C@@H]2O[C@H](COP(=O)(O)OP(=O)(O)OC[C@H]3O[C@@H](n4cnc5c(N)ncnc54)[C@H](O)[C@@H]3O)[C@@H](O)[C@H]2O)c1` [NAD^+], the “HPLC analysis of nucleotide co-purified with enzyme” value in series [2] is on record as “The purified D3dgpA was found to contain an almost equimolar amount of NAD(H)”.
Regarding `O[C@@H]1[C@@H](O)[C@@H]2OC[C@@H](O2)[C@H]1O` [levoglucosan], in series [1], the relative inhibition entry was “decreased in the order of D-glucose > methyl ß-glucoside > methyl α-glucoside ≈ levoglucosan”.
In the case of `CO[C@H]1O[C@H](CO)[C@@H](O)[C@H](O)[C@H]1O` [methyl α-glucopyranoside], the relative inhibition entry in series [1] is “decreased in the order of D-glucose > methyl ß-glucoside > methyl α-glucoside ≈ levoglucosan”.
Consider `CO[C@@H]1O[C@H](CO)[C@@H](O)[C@H](O)[C@H]1O` [methyl β-glucopyranoside], for which the relative inhibition result in series [1] is “decreased in the order of D-glucose > methyl ß-glucoside > methyl α-glucoside ≈ levoglucosan”.
The stoichiometry N is a count of units in the complex or per binding partner. On to “D3dgpA, Gfo/Idh/MocA family glycoside oxidoreductase (dgpA cloned from Dorea sp. MRG-IFC3) (enzyme)”, for which, in series [3], the stoichiometry N is 6.

B1: D3dgpA (human intestinal bacterium PUE) (protein)
chain: MSKLKIGIIGCGGIANQKHFPALKNNADLNEIVAFCDIQIDRAEKAAAEFGAEGAQVTADYKELLANPEVEVVHVCTPNVSHSEITIAAFEAGKHVYCEKPMSHSTEEAEKMVEAWKKSGKQFTIGYQNRFREEVMNLKKSCDKGELGEIYYGKAHAVRRRAVPTWGVFMDKEAQGGGPLIDIGTHALDITLWCMNNYDVDSVTGSVFYKLGQKENGPEGNLFGPWDPKTFEVEDSAVGFVKMKNGATIGLEASWAINMLDSREASTTLCGTEAGAEIHSGMSYPKNELIYNRARNNQLMEETLSSVGSIAYFAGGAGEEGTVDNRQWLEAIQNGTEPLVKPEEALAVTKILDAIYKSAKTNETIKF
notes: full length, 367 residues; His6-tag; pET-duet 1 (EcoRI/SalI), E. coli BL21 (DE3), Ni-NTA; about 45 kD; hexamer in solution; co-purifies with NAD(H)
As a reminder, the Km is the substrate concentration at which the rate is half of its maximum. As usually defined, the kcat is the maximal rate divided by the concentration of active sites. Consider B1, for which, in series [4], the Km turned out to be 250 µM and the kcat turned out to be 32 s⁻¹.
